Earlier results on one compound are cited in US10934346B2, “Modified T cell comprising a polynucleotide encoding an inducible stimulating molecule comprising MyD88, CD40 and FKBP12” (priority 2014, dated 2021).

For this data set, the system named is CD40-dependent signaling cascades. Particulars: mouse, in vivo; cited from earlier work.

In the case of `CC[C@H](C(=O)N1CCCC[C@H]1C(=O)O[C@H](CCc1ccc(OC)c(OC)c1)c1cccc(OCC(=O)NCC(CNC(=O)COc2cccc([C@@H](CCc3ccc(OC)c(OC)c3)OC(=O)[C@@H]3CCCCN3C(=O)[C@@H](CC)c3cc(OC)c(OC)c(OC)c3)c2)CN(C)C)c1)c1cc(OC)c(OC)c(OC)c1` [AP20187], the “induction of signaling in DCs” value was “led to the in vivo induction of CD40-dependent signaling cascades in murine DCs”.
